Assay results as given in patent publication US11013696B2, “Lipids and lipid compositions for the delivery of active agents” (Novartis AG, priority 2013, dated 2021).

Experiments:
mouse Erythropoietin = experiment: Mouse EPO ELISA after IV injection of encapsulated mEPO mRNA; type: in vivo; conditions: 0.2 mpk, ob/ob
Experimental: A rat anti-mouse Erythropoietin antibody is coated on 384-well white microtiter plates overnight, then blocked for assay. Then, plasma samples are diluted in a casein-based sample diluent and incubated on the plate with buffer controls and mouse EPO standards. The plate is then washed to remove unbound material. A biotinylated rat anti-mouse Erythropoietin antibody is then added to the plate to detect mouse EPO bound by the capture antibody. The plate is washed again and a streptavidin-conjugated horseradish peroxidase reagent is incubated on the plate. A third wash step is performed and a chemiluminescent reagent is added to the plate and immediately read by a capable plate reader using all wavelengths and a 50 millisecond integration time. Unknown samples are interpolated off the mouse EPO standard curve.

Factor VII = experiment: Mouse Factor VII dosing and plasma Factor VII activity assay (FVII siRNA LNP, IV); type: in vivo; conditions: 0.03 mpk, XXX mice
Experimental: Female CD-1 mice were received from Harlan Labs and maintained on standard lab chow and water ad libitum. The animals weighed approximately 25 gr at time of dosing. Formulated Factor VII siRNA was administered as a single dose intravenously via the lateral tail vein. Approximately 48 hours after injection, the mice were euthanized by CO2 inhalation followed by exsanguination through the vena cava.
Plasma collected from injected mice was assayed for Factor VII enzyme activity using the Biophen FVII kit from Hyphen Biomedical (catalog number 221304). An assay standard curve was prepared using pooled plasma aliquots from the vehicle control animals. All samples were diluted to fall within the linear range of the standard curve and Factor VII activity relative to control plasma was reported.
Lipid nanoparticles comprising lipid compounds of formula (I) and the FVII siRNA duplex sequence listed above were tested in the Factor VII Activity Assay. The results of this assay are given in Table 34 below as a percent knock down of plasma Factor VII enzyme activity at a dose of 0.3 mg/kg and 0.03 mg/kg.

## CCCCCCCCCCCCC(CCOC(=O)CCCCC(COC(=O)CCCCCCC)COC(=O)CCCCCCC)OC(=O)OCCCN(CC)CC (centres unmarked) [Example 1, 2-(10-dodecyl-3-ethyl-8,14-dioxo-7,9,13-trioxa-3-azaoctadecan-18-yl)propane-1,3-diyl dioctanoate]
Mouse Erythropoietin
  Expression of protein following IV injection of encapsulated mRNA: 247.6 ng/mL

## CCCCC/C=C\C/C=C\CCCCCCCC(=O)OCC(COC(=O)CCCCCCC/C=C\C/C=C\CCCCC)OC(=O)CCC(CCCCCCCCCCCC)OC(=O)OCCCN(C)C (centres unmarked) [Example 80, (9Z,9′Z,12Z,12′Z)-2-((4-(((3-(dimethylamino)propoxy)carbonyl)oxy)hexadecanoyl)oxy)propane-1,3-diyl bis(octadeca-9,12-dienoate)]
Factor VII
  FVII knock-down following IV injection of encapsulated siRNA: 95%/0.03
